Test results taken from patent US8377934B2, “Use of stilbene derivatives for treatment and prevention of aquatic mold infections” (State of Israel, Ministry of Agriculture & Rural …, priority 2006, dated 2013).

Assays:
various fish species = assay: Toxicity testing in various fish species; format: in vivo; details: all five fish species tested, 15° C., up to 96 h
Protocol: LC50 values for Blankophor® BA in various fish species were determined as in Example 2, except that fish were acclimated to 21° C. for three weeks, and then to 15° C. for another two weeks before the initiation of the experiment. Following acclimation to 15° C., Blankophor® BA (100, 200, 500, 1,000 or 2,000 mg/L) was added to the tanks, and mortality of fish was recorded up to 96 h. […] The fish used were: hybrid tilapia (Oreochromis niloticus X O. aureus), average weight 20 g; grey mullet (Mugil cephalus), average weight 70 g; common carp (Cyprinus carpio), average weight 25 g; hybrid striped bass (Morone saxatilis X M. chrysops), average weight 25 g, and grass carp (Ctenopharyngodon idella), average weight 25 g.

S. parasitica = assay: Tilapia-saprolegniosis established infection model; format: in vivo; details: 50 and 100 mg/L on 3rd and 8th day
Protocol: Tilapia were exposed to S. parasitica and treated with Blankophor® BA (100, 50 and 25 mg/L), as described in Example 4, with the exception that Blankophor® BA treatment was started on the 3rd day after initiation of the infection, and repeated on the 8th day. By the starting point of the Blankophor® BA treatment, approximately 50% of the fish had established infection, as indicated by the presence of white skin lesions and a mortality rate of approximately 30%.

Microcystis = assay: Delayed Fluorescent Excitation Spectroscopy (DFES) of pure algal culture; format: cell-based, Microcystis sp.; details: 100 mg/L
Source text: The Delayed Fluorescent Excitation Spectroscopy (DFES) method was used for qualitative and quantitative assessment of the influence of Blankophor® BA on the natural population of phytoplankton, and on specific algae strains. Delayed fluorescence is a unique characteristic of photosynthetically active cells, as it is an outcome of recombination that takes place in the thylakoids in the dark (Yacobi Y. Z., V. Gerhardt, Y. Gonen-Zurgil, and A. Sukenik. 1998. Delayed fluorescence excitation spectroscopy: a rapid method for the qualitative and quantitative assessment of natural population of phytoplankton. Wat. Res. 00:1-6).
(§1) Samples from Lake Kinneret and pure cultures of Peridinium sp. and Microcystis sp. were exposed to Blankophor® BA (100 mg/L), for a few minutes and the concentration of chlorophyll-a was determined (in duplicate) according to the excitation spectrum examined (range from 400 to 730 nm). In addition, the exposed and non-exposed samples were assessed for carbon uptake with a ^14C technique.

[1] = tested on: Chlorella, Microcystis, Peridinium, Melosira and Lake Kinneret samples; assay: 14C-carbon uptake study of photosynthetic activity; format: cell-based, phytoplankton; details: 100 mg/L
Protocol: FIG. 6 illustrates the effect of exposure to Blankophor® BA (100 mg/L) (□) on photosynthetic activity in pure cultures of Chlorella (C), Microcystis (M), Peridinium (P) and Melosira (Me), and in samples from Lake Kinneret (LK), as determined by ^14C-uptake. Control, (▪).
as §1

ICR mice = assay: Intravenous maximal tolerated dose in mice; format: in vivo; details: male ICR mice
Protocol: Blankophor® BA was prepared at various concentrations in 5% dextrose and filter sterilized by passage through a sterile 0.2 μm pore size cellulose acetate filter (Schleicher & Schuell, Dassel, Germany). Male albino ICR mice (weight 30 g) were injected through the tail vein with various doses of Blankophor® BA. Each dosage form was administered intravenously as single bolus injection of 0.1 ml of the same dose every 10 min to a group of 10 mice until death was observed. The survival of mice that received the maximal tolerated dose (MTD) was monitored for 8 days.

Saprolegnia sp. = assay: Non-randomized field trial in a cement pond, oomycete disease; format: in vivo, hybrid tilapia; details: 50 mg/L
Protocol: Following transfer of 2000 hybrid tilapia fish (20-30 g) to a cement pond (1×10^5 L, 21 to 25° C.), white patches of filamentous mycelium were observed on the body and fins of fish, covering in most cases about 80% of the body surface. The mycelia appeared about four days after the transfer, presumably due to opportunistic infection by Saprolegnia sp. following handling stress. Death of 20 to 30 fish per day was recorded. All the dead fish were covered with mycelium, characteristic of Saprolegnia sp., and were also found to be infected with the parasites Gyrodactilus sp. and Trichodina sp.
The water capacity in the pond was decreased to 3×10^4 L, and treatment with Blankophor® BA (50 mg/L) was initiated. A regimen of 3 treatments (8 h each) with 48 hours intervals between them was used.

## O=S(=O)([O-])c1cc(Nc2nc(Nc3ccccc3)nc(N(CCO)CCO)n2)ccc1C=Cc1ccc(Nc2nc(Nc3ccccc3)nc(N(CCO)CCO)n2)cc1S(=O)(=O)[O-].[K+].[Na+] [Blankophor® BA]
Various fish species
  LC50: greater than 2000 mg/L
S. parasitica
  efficacy in promoting survival of infected fish: highly effective
Microcystis
  photosynthetic activity versus non-treated samples: no difference
[1]
  photosynthetic activity (14C-carbon uptake): did not decrease
ICR mice
  maximal tolerated dose (MTD): > 1000 mg/kg
Saprolegnia sp.; 3 treatments of 8 h at 48 h intervals, 2 days after end
  presence of Saprolegnia sp. on visual and microscopic examination: free of
Saprolegnia sp.; after the first 8 h treatment
  deaths recorded: no further deaths
  prevalence and intensity of saprolegniosis: Significant reduction
